The record followed here is patent US12410124B2 (priority 2019, dated 2025).

For this experiment, the system named is substantia nigra pp38. The experiment can be described thus: Substantia nigra pp38 protein expression in MPTP Parkinson's disease model mouse (immunofluorescence). It is filed as in vivo. To be noted: percentage of mean intensity of blank control group, gavage 21 days after MPTP modeling. As to the method: Neurotoxins can be used to establish PD animal models. Currently, 1-methyl-4-phenyl-1,2,3,6-tetrahydropyridine (MPTP) is the sole synthetic toxin which is recognized to induce PD symptoms in human and non-human primates and in mice. Using MPTP subacute modeling method, C57BL/6J male mice were intraperitoneally injected with MPTP 30 mg/kg, once a day for 5 consecutive days. The experiment animals were divided into blank control group, MPTP model group, and compound treatment group. For the […] compound treatment group, the compound was administrated by gavage for 21 consecutive days after the completion of modeling; for the MPTP model group, the normal saline was administrated by gavage for 21 consecutive days after the completion of modeling; and for the blank control group, the normal saline was first intraperitoneally injected for 5 days, and then administrated by gavage for 21 days.
The p38 mitogen-activated protein kinase (p38 MAPK) is expressed in both neurons and glial cells, and is the intersection point of neuron-glial cell network information regulations. The activation of p38 signaling pathway is an important initiator of neuronal degeneration, which continuously induces the apoptosis of dopaminergic neurons in multiple ways. It has become a research hotspot for the treatment of PD. Studies have shown that the protective mechanism of CAPE against the death of primary cultured cerebellar granule neurons induced by glutamate lies in inhibiting the activation of p38 phosphorylation and in turn inhibiting the activation of the caspase 3 apoptotic pathway to prevent neuronal apoptosis. Therefore, the MPTP-induced PD mouse model can be used to investigate the inhibitory effect of the target compounds on the activation of p38 phosphorylation on the overall animal level.
Half of experiment mice in each group were taken to separate the midbrain after perfusion and fixation. The tissue was trimmed, and the substantia nigra-striatum area was taken to prepare paraffin sections. The double immunofluorescence staining for TH and phosphorylated p38 was performed to observe the coexpression of TH and phosphorylated p38, for the statistics of the change in the phosphorylated p38 protein expression. The experiment included blank control group, MPTP model group, positive control group (caffeic acid phenethyl ester, CAPE), prototype control group (styryl sulfone compounds 3B, 3C, 3D, and 3G, whose structures are shown as above), and target compound group.
On to `O=C(NC(=O)C(F)(F)F)Oc1ccc(/C=C/S(=O)(=O)C(F)(F)c2ccc(Oc3ccccn3)cc2)cc1OC(=O)C(F)(F)C(F)(F)F` [Compound L1-4, (E)-5-{2-[(4-[pyridin-2-yl-oxy]phenyl)difluoromethylsulfonyl]ethenyl}-2-[N-(2,2,2-trifluoroacetyl)carbamoyloxy]phenyl-2,2,3,3,3-pentafluoropropionate], for which the “Expression (Immunofluorescence intensity %)” value is 62.93 ± 17.51%.
Then `O=S(=O)(/C=C/c1ccc(O)c(O)c1)CCCc1ccccc1` [Compound 3C, (E)-4-{2-[(3-phenylpropyl)sulfonyl]ethenyl}benzene-1,2-diol, reference compound], with 138.79 ± 27.44%; and `CCN(CC)C(=O)Oc1ccc(/C=C/S(=O)(=O)CCCc2ccccc2)cc1OC(=O)N(CC)CC` [Compound C1-1, (E)-4-[2-(3-phenylpropylsulfonyl)ethenyl]-1,2-phenylenebis(diethylcarbamate)], with 108.71 ± 12.51%.
For the compound `COc1ccc(CC(=O)Oc2ccc(C(N)CS(=O)(=O)/C=C/c3ccc(OC(C)(C)C)c(OC(=O)N(C)c4ccccc4)c3)cc2)cc1` (centres unmarked) [Compound P1-3, (E)-4-{1-amino-2-[4-t-butoxy-3-(N-methyl-N-phenylcarbamoyloxy)styrylsulfonyl]ethyl}phenyl-2-(4-methoxyphenyl)acetate], the “Expression (Immunofluorescence intensity %)” value was found to be 81.90 ± 9.52%.
Then `CCOC(CS(=O)(=O)/C=C/c1ccc(OC(C)=O)c(OC(=O)Nc2ccc(NC)cc2)c1)C(OCC)c1ccc(OCc2ccccc2)c(O)c1` (centres unmarked) [Compound H2-4, (E)-4-{2-[3-(4-benzyloxy-3-hydroxyphenyl)-2,3-diethoxypropyl]sulfonylethenyl}-2-[N-(4-methylaminophenyl)carbamoyloxy]phenyl acetate], with 103.17 ± 12.58%.
